Tested on: naturally aged C57BL6J mice
Format: in vivo, mouse
Settings: mouse, in vivo

SMILES	wound/damage healing improvement
CC1(C)CC[C@]2(c3nc(CO)no3)CC[C@]3(C)[C@H](C(=O)C=C4[C@@]5(C)C=C(C#N)C(=O)C(C)(C)[C@@H]5CC[C@]43C)[C@@H]2C1 [LX-2508]	damage treatment and recovery
CCC[C@H]1C(=O)C(C#N)=C[C@@]2(C)c3nc(-c4cccc5ncccc45)nc(-c4ccccc4F)c3CC[C@H]12 [LX-2503]	damage treatment and recovery
COc1nc(-c2cccnc2)nc2c1CC[C@H]1[C@H](C)C(=O)C(C#N)=C[C@]21C [LX-2315]	damage treatment and recovery
C[C@@H]1C(=O)C(C#N)=C[C@]2(c3ccccc3)c3c(c(-c4cncnc4)nn3C)CC[C@@H]12 [LX-2408]	damage treatment and recovery
CCC[C@H]1C(=O)C(C#N)=C[C@@]2(C)c3nc(-c4cccc5ccccc45)nc(-c4ccccc4F)c3CC[C@H]12 [LX-2502]	damage treatment and recovery
CC(O)[C@]1(C)C(=O)C(C#N)=C[C@]2(C)C3=CC(=O)[C@]45OC(=O)[C@@]6(CCC(C)(C)C[C@H]64)CC[C@@]5(C)[C@]3(C)CC[C@@H]12 (stereo partly drawn) [LX-2501]	damage treatment and recovery
C[C@@H]1C(=O)[C@]2(C#N)O[C@@H]2[C@]2(C)C3=CC(=O)[C@@H]4[C@@H]5CC(C)(C)CC[C@]5(NC(=O)C(C)(F)F)CC[C@@]4(C)[C@]3(C)CC[C@@H]12 [LX-2319]	damage treatment and recovery
CC1(C)CC[C@]2(CO)CC[C@@]3(C)[C@]4(C)CC[C@H]5C(C)(C)C(=O)C(C#N)=C[C@]5(C)C4=CC(=O)[C@]3(O)C2C1 (stereo partly drawn) [LX-2405]	damage treatment and recovery
C=CC(=O)NC[C@]12CCC(C)(C)C[C@H]1[C@H]1C(=O)C=C3[C@@]4(C)C=C(C#N)C(=O)C(C)(C)[C@@H]4CC[C@@]3(C)[C@]1(C)CC2 [LX-2509]	damage treatment and recovery
CCC(=O)NC[C@]12CCC(C)(C)C[C@H]1[C@H]1C(=O)C=C3[C@@]4(C)C=C(C#N)C(=O)C(C)(C)[C@@H]4CC[C@@]3(C)[C@]1(C)CC2 [LX-2510]	damage treatment and recovery
C[C@@H]1C(=O)C(C#N)=C[C@]2(C)c3nc(CCO)n(-c4ccccc4)c3CC[C@@H]12 [LX-2409]	damage treatment and recovery
CC1(C)C(=O)C(C#N)=C[C@]2(C)C3=CC(=O)[C@@H]4[C@@H]5C[C@@](C)(C(=O)NCCc6c[nH]c7ccccc67)CC[C@]5(C)CC[C@@]4(C)[C@]3(C)CCC12 (stereo partly drawn) [LX-2517, Soloxolone tryptamide]	damage treatment and recovery
CCNC(=O)CC[C@]12CCC(C)(C)C[C@H]1[C@H]1C(=O)C=C3[C@@]4(C)C=C(C#N)C(=O)C(C)(C)[C@@H]4CC[C@@]3(C)[C@]1(C)CC2 [LX-2402]	damage treatment and recovery
Cc1cc(-c2ccc(-n3nc(-c4ccccc4F)c4c3[C@]3(C)C=C(C#N)C(=O)[C@H](C)[C@H]3CC4)cc2)cnn1 [LX-2506]	damage treatment and recovery
COC(=O)C[C@]12CCC(C)(C)C[C@H]1[C@H]1C(=O)C[C@@H]3[C@@]4(C)C=C(C#N)C(=O)C(C)(C)[C@@H]4CC[C@@]3(C)[C@]1(C)CC2 [LX-2307]	damage treatment and recovery
CONC(=O)[C@]12CCC(C)(C)C[C@H]1[C@H]1C(=O)C=C3[C@@]4(C)C=C(C#N)C(=O)C(C)(C)[C@@H]4CC[C@@]3(C)[C@]1(C)CC2 [LX-2310]	damage treatment and recovery
CC1(C)CC[C@]2(CO)CC[C@]3(C)[C@H](C(=O)C=C4[C@@]5(C)[C@H]6O[C@@]6(C#N)C(=O)C(C)(C)[C@@H]5CC[C@]43C)[C@@H]2C1 [LX-2318]	damage treatment and recovery
C[C@@H]1C(=O)C(C#N)=C[C@]2(C)c3nn(C)c(-c4ccccc4)c3CC[C@@H]12 [LX-2312]	damage treatment and recovery
